Measurements taken from ChEMBL document CHEMBL5385846, “Discovery and development of palmatine analogues as anti-NASH agents by activating farnesoid X receptor (FXR)” (Eur J Med Chem, 2023).
Active and inactive are the calls of the source. The calls are words filed in the database; no cut-off is given here.

Tests used:
[1] = Acute toxicity in Kunming mouse assessed as effect on AST level at 250 to 1000 mg/kg,po administration; assay type: organism-based; details: in vivo, dose 250-1000 mg/kg
Mus musculus [2] = assay: Antifibrotic activity in CDAHFD induced non-alcoholic steatohepatitis C57BL/6N mouse model assessed as downregulation of TGF-beta1 mRNA expression at 200 mg/kg,po qd administration for 4 weeks by qRT-PCR analysis; assay type: functional, organism-based
Mus musculus [3] = assay: Hepatoprotective activity in CDAHFD induced C57BL/6N mouse liver injury model assessed as decrease in total bilirubin level at 200 mg/kg,po qd administration for 4 weeks; assay type: functional, organism-based
Mus musculus [4] = assay: Hepatoprotective activity in CDAHFD induced C57BL/6N mouse liver injury model assessed as increase in glutathione peroxidase level at 200 mg/kg,po qd administration for 4 weeks; assay type: functional, organism-based
THP-1 [5] = assay: Anti-inflammatory activity in PMA differentiated human THP-1 cells assessed as downregulation of IL-1beta protein expression at 5 micromol/L incubated for 4 hrs followed by LPS and Nigericin addition for 3.5 hrs by Western blotting analysis; assay type: functional, cell-based; details: dose 5.0 µmol/L, time 7.5 hrs
Mus musculus [6] = assay: Antifibrotic activity in CDAHFD induced non-alcoholic steatohepatitis C57BL/6N mouse model assessed as downregulation of TIMP1 protein expression at 200 mg/kg,po qd administration for 4 weeks by Western blotting analysis; assay type: functional, organism-based
Mus musculus [7] = assay: Anti-inflammatory activity in CDAHFD induced C57BL/6N mouse liver injury model assessed as reduction in inflammatory cell infiltration in liver at 200 mg/kg,po qd administration for 4 weeks by hematoxylin and eosin staining based assay; assay type: functional, organism-based
Mus musculus [8] = assay: Hepatoprotective activity in CDAHFD induced C57BL/6N mouse liver injury model assessed as increase in glucose level at 200 mg/kg,po qd administration for 4 weeks; assay type: functional, organism-based
[9] = Half life in Sprague-Dawley rat liver microsomes at 1 micromol/L measured upto 60 mins in presence of NADPH by LC-MS/MS analysis; assay type: ADME, Microsome; details: dose 1 µmol/L
[10] = Half life in human liver microsomes at 1 micromol/L measured upto 60 mins in presence of NADPH by LC-MS/MS analysis; assay type: ADME, Microsome; details: dose 1 µmol/L
[11] = Metabolic stability in human liver microsomes assessed as intrinsic clearance at 1 micromol/L measured upto 60 mins in presence of NADPH by LC-MS/MS analysis; assay type: ADME, Microsome; details: 1 h, 1 µM, dose 1 µmol/L
[12] = Metabolic stability in CD-1 mouse liver microsomes assessed as microsomal intrinsic clearance at 1 micromol/L measured upto 60 mins in presence of NADPH by LC-MS/MS analysis; assay type: ADME, Microsome; details: dose 1 µmol/L, read-out: CLH
Rattus norvegicus [13] = assay: Antifibrotic activity in bile duct ligation induced Sprague-Dawley rat liver fibrosis model assessed as downregulation of TGF-beta1 mRNA expression at 200 mg/kg,po qd administration for 14 days by qRT-PCR analysis; assay type: functional, organism-based; details: time 14.0 day
Rattus norvegicus [14] = assay: Antifibrotic activity in bile duct ligation induced Sprague-Dawley rat liver fibrosis model assessed as upregulation of FXR protein expression at 200 mg/kg,po qd administration for 14 days by Western blotting analysis; assay type: functional, organism-based; details: time 14.0 day
Mus musculus [15] = assay: Hepatoprotective activity in CDAHFD induced C57BL/6N mouse liver injury model assessed as decrease in LDL level at 200 mg/kg,po qd administration for 4 weeks; assay type: functional, organism-based
Mus musculus [16] = assay: Hepatoprotective activity in CDAHFD induced C57BL/6N mouse liver injury model assessed as inhibition of lipid peroxidation at 200 mg/kg,po qd administration for 4 weeks; assay type: functional, organism-based
Mus musculus [17] = assay: Anti-inflammatory activity in CDAHFD induced C57BL/6N mouse liver injury model assessed as downregulation of IL-1beta protein expression in liver at 200 mg/kg,po qd administration for 4 weeks by Western blotting analysis; assay type: functional, organism-based
Mus musculus [18] = assay: Antifibrotic activity in CDAHFD induced non-alcoholic steatohepatitis C57BL/6N mouse model assessed as decrease in collagen area at 200 mg/kg,po qd administration for 4 weeks by Masson's trichrome staining based analysis; assay type: functional, organism-based
[19] = Metabolic stability in human liver microsomes assessed as compound remaining at 1 micromol/L measured upto 60 mins in presence of NADPH by LC-MS/MS analysis; assay type: ADME, Microsome; details: dose 1 µmol/L, read-out: Stability
[20] = Metabolic stability in Sprague-Dawley rat liver microsomes assessed as microsomal intrinsic clearance at 1 micromol/L measured upto 60 mins in presence of NADPH by LC-MS/MS analysis; assay type: ADME, Microsome; details: dose 1 µmol/L, read-out: CLH
[21] = Metabolic stability in Sprague-Dawley rat liver microsomes assessed as intrinsic clearance at 1 micromol/L measured upto 60 mins in presence of NADPH by LC-MS/MS analysis; assay type: ADME, Microsome; details: 1 h, 1 µM, dose 1 µmol/L
[22] = Metabolic stability in Sprague-Dawley rat liver microsomes assessed as compound remaining at 1 micromol/L measured upto 60 mins in presence of NADPH by LC-MS/MS analysis; assay type: ADME, Microsome; details: dose 1 µmol/L, read-out: Stability
Rattus norvegicus [23] = assay: Hepatoprotective activity in bile duct ligation induced Sprague-Dawley rat liver injury model assessed as decrease in ALP level at 200 mg/kg,po qd administration for 14 days; assay type: functional, organism-based; details: time 14.0 day
THP-1 [24] = assay: Anti-inflammatory activity in PMA differentiated human THP-1 cells assessed as downregulation of caspase-1 protein expression at 5 micromol/L incubated for 4 hrs followed by LPS and Nigericin addition for 3.5 hrs by Western blotting analysis; assay type: functional, cell-based; details: dose 5.0 µmol/L, time 7.5 hrs
Mus musculus [25] = assay: Antifibrotic activity in CDAHFD induced non-alcoholic steatohepatitis C57BL/6N mouse model assessed as downregulation of TGF-beta1 protein expression at 200 mg/kg,po qd administration for 4 weeks by Western blotting analysis; assay type: functional, organism-based
[26] = Metabolic stability in CD-1 mouse liver microsomes assessed as intrinsic clearance at 1 micromol/L measured upto 60 mins in presence of NADPH by LC-MS/MS analysis; assay type: ADME, Microsome; details: 1 h, 1 µM, dose 1 µmol/L
Mus musculus [27] = assay: Anti-inflammatory activity in CDAHFD induced C57BL/6N mouse liver injury model assessed as downregulation of IL-6 protein expression in liver at 200 mg/kg,po qd administration for 4 weeks by Western blotting analysis; assay type: functional, organism-based
LX-2 [28] = assay: Antifibrotic activity in TGF-beta1 induced human LX2 cells assessed as downregulation of TGF-beta1 protein expression incubated for 24 hrs by western blotting analysis; assay type: functional, cell-based
LX-2 [29] = assay: Antifibrotic activity in TGF-beta1 induced human LX2 cells assessed as downregulation of COL1A1 protein expression incubated for 24 hrs by western blotting analysis; assay type: functional, cell-based
Mus musculus [30] = assay: Hepatoprotective activity in CDAHFD induced C57BL/6N mouse liver injury model assessed as decrease in total cholesterol level at 200 mg/kg,po qd administration for 4 weeks; assay type: functional, organism-based
[31] = Acute toxicity in Kunming mouse assessed as effect on blood urea nitrogen level at 250 to 1000 mg/kg,po administration; assay type: organism-based; details: in vivo, dose 250-1000 mg/kg
Mus musculus [32] = assay: Hepatoprotective activity in CDAHFD induced C57BL/6N mouse liver injury model assessed as reduction in hepatic steatosis at 200 mg/kg,po qd administration for 4 weeks by hematoxylin and eosin staining based assay; assay type: functional, organism-based
Mus musculus [33] = assay: Antifibrotic activity in CDAHFD induced non-alcoholic steatohepatitis C57BL/6N mouse model assessed as downregulation of MMP2 protein expression at 200 mg/kg,po qd administration for 4 weeks by Western blotting analysis; assay type: functional, organism-based

In the case of `COc1cc2c(cc1OC)-c1cc3ccc(OC)c(OCc4cccc(C)c4)c3c[n+]1CC2.[Br-]`, the Activity [1] is reported as “Non-Toxic”, the Activity (Mus musculus [2]) is reported as “Active” and the Activity (Mus musculus [3]) is reported as “Active”. The Activity (Mus musculus [4]) was “Active”, the Activity (THP-1 [5]) was “Active” and the Activity (Mus musculus [6]) was “Active”. The Activity (Mus musculus [7]) was “Active”, the Activity (Mus musculus [8]) was “Active” and the half-life at 1 µM [9] was 7.4 min. The half-life at 1 µM [10] was 53.3 min, the CLint,scaled [11] was 23.4 mL/min/kg and the microsomal CLint at 1 µM [12] was 188 µL/min/mg. The Activity (Rattus norvegicus [13]) was “Active”, the Activity (Rattus norvegicus [14]) was “Active” and the Activity (Mus musculus [15]) was “Active”. For the same molecule, the Activity (Mus musculus [16]) was “Active”, the Activity (Mus musculus [17]) was “Active” and the Activity (Mus musculus [18]) was “Active”. For the same molecule, the remaining at 1 h, 1 µM [19] was 44.1%, the microsomal CLint at 1 µM [20] was 188 µL/min/mg and the CLint,scaled [21] was 338 mL/min/kg. The remaining at 1 h, 1 µM [22] was 0.4%, the Activity (Rattus norvegicus [23]) was “Active” and the Activity (THP-1 [24]) was “Active”. The Activity (Mus musculus [25]) was “Active”, the CLint,scaled [26] was 744 mL/min/kg and the Activity (Mus musculus [27]) was “Active”. The Activity (LX-2 [28]) was “Dose-Dependent Effect”, the Activity (LX-2 [29]) was “Dose-Dependent Effect” and the Activity (Mus musculus [30]) was “inactive”. The Activity [31] was “Non-Toxic”, the Activity (Mus musculus [32]) was “Active” and the Activity (Mus musculus [33]) was “Active”.
